In US20250275910A1, “Cosmetic application of viniferine” (Tomcat International Limited, priority 2021, published 2025):

Legend:
[1] = tested on: human epidermal melanocytes (HEM); assay: Melanin content test on human epidermal melanocytes exposed to blue light; format: cell-based; conditions: total 120 J/cm^2
Method: In the following experimental part, the preventive effect of ε-viniferine (trans-ε-viniferine) at different concentrations, on the damage caused by blue light at two wavelengths (412 nm, characteristic of solar blue light and 450 nm, characteristic of blue light from screens) was evaluated by means of a test for determining the melanin content of cells treated with a composition of the invention. In order to determine the maximum concentrations to be tested, the toxicity of different concentrations of the compositions tested was first evaluated via the MTT test, a live cell counting test involving the MTT tetrazolium salt as a reagent and well known to the professional.
The tests were carried out on human epidermal melanocytes (HEM), which are cells that produce melanin and are therefore responsible for skin pigmentation. […]
The HEM cells were cultured at 37° C., in a 5% CO2 atmosphere and treated with a determined concentration of the composition C1 or the composition C2. […]
(§1) The coloring intensity determined by the optical density measured at 405 nm is directly correlated to the melanin content.
(§2) The melanin content is calculated by relating the absorbance value to that of the negative control.
(§3) The percentage variation in melanin content compared to the blank test or the negative control is calculated according to the following equation: […]

human skin explants = assay: Melanin content test on human skin explants exposed to blue light; format: cell-based; conditions: human skin explants treated with C11 or C12, blue light at 412 nm or 450 nm, total 120 J/cm^2
Method: The tests were carried out on human skin explants obtained from plastic surgery. The biopsies are divided into explants of 8 mm diameter and kept for survival in complete medium. at 37° C. and in an atmosphere of 5% CO2.
The skin explants are exposed to blue light, at 412 nm or 450 nm or kept in the dark (control) for 5 hours per day, for 3 days, representing a total irradiation of 120 J/cm^2. Before each exposure, the explants are treated overnight with the compositions C11 or C12.
24 hours after the last irradiation, the explants are collected and incubated in a 1 M NaOH solution at 80° C. for 3 hours, allowing the melanin to solubilize. […]
as §1, §2, §3

With `Oc1ccc(/C=C/c2cc(O)cc3c2[C@@H](c2cc(O)cc(O)c2)[C@H](c2ccc(O)cc2)O3)cc1` (relative stereo) [ε-viniferine, trans-ε-viniferine] the “production of melanin (optical density at 405 nm)” value ([1]; HEM cells treated 24 h before exposure to blue light at 412 nm or 450 nm, 5 h per day for 3 days, versus untreated irradiated cells (NT)) was “significantly reduce the production of melanin”, the “melanin content relative to culture not exposed to blue light” value ([1]; HEM cells, blue light at 450 nm) was “lower the melanin content to the content of a culture of melanocytes not exposed to blue light” and the “melanin content relative to explant not exposed to blue light” value (human skin explants) was “lower the melanin content to the content of an explant not exposed to blue light”.
